Results taken from US20100279413A1, “APPLICATIONS OF UBIQUINONES AND UBIQUINOLS” (ZYMES, LLC, priority 2008, published 2010).

How the values were obtained:
cultured fetal rat DRGs = assay: CoQ10 / HQO dose response: neurite growth and survival of cultured fetal rat DRGs; type: cell-based; conditions: for mean neurite length: day 16, controls 4.84 mm, p<0.0001
Method: In fact, by day 11, the length of neurites around DRGs was longer if the DRGs were cultured with CoQ10 (concentrations ranged from 0.1-50 uM) compared with control DRGs, p<0.0001 for all. FIG. 1A, 1B, 1C.
The aim of the second experiment was to confirm that exposure to 50 uM CoQ10 is not toxic to cultured fetal rat DRGs and also to see if even higher concentrations may be used safely. Eight DRGs (2 plates of 4 DRGs each) were cultured under each of the following conditions: • Control • 50 uM CoQ10 • 75 uM CoQ10 • 100 uM CoQ10
This experiment was carried on for 22 days, which is about as long as DRGs can be sustained in this model, even under control conditions. The experiment was continued for this time period to confirm that CoQ10 remains non-toxic in this model over time.
Neurite lengths around each DRG were measured at four representative points (giving a total of 32 measures at each exposure concentration at each time point) on days 1, 2, 5, 8, 12, 16 and 22.
A third experiment measured growth of DRG's with varying doses of HQO™, 0.1, 10, 100 uM CoQ10. This experiment was done in DRG's isolated from a new rat, which accounts for the difference in neurite length compared to experiments 1 and 2. […] (FIG. 1E)

[1] = system: cultured fetal rat dorsal root ganglia (DRGs); assay: In vitro model of ATN: NRTI (d4T/ddI) neurotoxicity in cultured fetal rat DRGs; type: cell-based
Method: Objective: To examine the safety and preventative efficacy of HQO™ using cultured fetal rat dorsal root ganglia (DRGs) as an in vitro model of ATN.
In a separate experiment, DRGs were exposed to a higher dose (50 μM) of d4T alone or with 10 or 100 nM HQO™.

Structure (SMILES): COC1=C(OC)C(=O)C(C/C=C(\C)CC/C=C(\C)CC/C=C(\C)CC/C=C(\C)CC/C=C(\C)CC/C=C(\C)CC/C=C(\C)CC/C=C(\C)CC/C=C(\C)CCC=C(C)C)=C(C)C1=O [CoQ10, coenzyme Q10]
- length of neurites around DRGs compared with control DRGs (cultured fetal rat DRGs; day 11, 0.1-50 uM, p<0.0001 for all): longer
- mean neurite length (cultured fetal rat DRGs; 75 uM (non-viable DRG excluded)): 6.20 mm
- mean neurite length (cultured fetal rat DRGs; 100 uM): 6.07 mm
- toxicity in cultured fetal rat DRGs (cultured fetal rat DRGs; first dose finding experiment, concentrations up to 50 uM): no evidence of toxicity
- toxicity in cultured fetal rat DRGs (cultured fetal rat DRGs; second experiment, 50, 75, 100 uM, up to 22 days): no evidence of toxicity

Structure (SMILES): CC(=O)O[C@H](CC(=O)[O-])C[N+](C)(C)C [LAC, L-acetyl carnitine]
- NRTI (ddI)-induced neurotoxicity of fetal rat DRGs ([1]; heading of Example 3, no data given): Prevents

Structure (SMILES): Cc1cn([C@H]2C=C[C@@H](CO)O2)c(=O)[nH]c1=O [d4T, stavudine]
- toxicity in DRGs (NRTI alone) ([1]; 50 μM d4T alone, by day 8): evident
